Assay results from publication PMC10758121, “Miconazole-like Scaffold is a Promising Lead for Naegleria fowleri-Specific CYP51 Inhibitors” (Journal of Medicinal Chemistry, 2023).
Read-outs that look alike come from different tables or passages of the source.

Columns and labels:
[1] = Single-dose PK experiment of 2a; conditions: for concentration at 30 min: intraperitoneal, 20 mg/kg
[2] = cited from earlier work
[3] = biological target: NfCYP51 (Naegleria fowleri, UniProt A0A2H4A2U9); test: biochemical; assay type: binding
[4] = tested on: N. fowleri European KUL strain; test: Primary phenotypic organism-based screen at 10 μM (384-well); assay type: cell-based; conditions: Naegleria fowleri
[5] = tested on: N. fowleri European KUL strain; test: Naegleria cell-based assay, dose–response (CellTiter-Glo viability, 48 h)
Method: The compounds were screened against N. fowleri European KUL strain axenically cultured in Nelson’s medium supplemented with 10% fetal bovine serum at 37 °C.[59] The screening assay in 96- and 384-well formats (Z’-value of 0.95 ± 0.1) was performed as described elsewhere.[9] All the experiments were performed using trophozoites harvested during the logarithmic phase of growth.[60] The primary screen was performed in duplicate at 10 μM in a 384-well format (2,500 amoebae/well). The dose–response curves were generated in triplicate for the follow up compounds by serial dilution of compounds from 50 to 0.39 μM in a 96-well plate with 10,000 amoebae/well. Assay plates were incubated for 48 h at 37 °C, and cell viability was determined by a CellTiter-Glo Luminescent Cell Viability Assay.[9],[58]

[6] = in vivo; conditions: female, C57BL/6, mouse, ip, 40 mg/kg
Method: All mice were maintained on a 12 h light/dark cycle in a temperature-controlled environment with access to food and water ad libitum. […] Mice were sacrificed 1 h following the drug administration, and blood and brain samples were collected. Blood (100 μL) was quickly added with 5-fold H2O/CH3CN 8:2, centrifugated to 2500 rpm for 15 min, and plasma was collected. Brain was homogenized in 0.5 mL of distilled water and added with 2 mL of CH3CN. Thus, homogenates were centrifugated to 2500 rpm for 15 min and the supernatants were collected. Plasma and brain supernatants were stored at −20 °C until analysis.
All experiments involving animals were carried out according to Sapienza University’s Ethics Committee, approval code 890/2021-PR, approved on 17 November 2021. Animal care followed the IASP and European Community (EC L358/1, 18/12/86) guidelines on using and protecting animals in experimental research. Eight week-old female C57BL/6 mice were used for the experiments (Charles River, Lecco, Italy).
The targeted analysis was performed by a Waters system composed of a 1525 μ HPLC (Milford, MA, USA), coupled with a Quattro Micro Tandem MS/MS with an ESI source (Micromass, Manchester UK), using a Supelco Ascentis Express C18 (15 cm × 2.1 mm) 2.7 μm analytical column, A (deionized water/formic acid 0.02%) and B (acetonitrile/formic acid 0.02%) as mobile phase, with the following optimized elution binary gradient with linear interpolation: 0–1 min, 30% B; 1–16 min, 45% B; 16–17 min, 45% B; 17–18 min, 30% B; 18–38 min, 30% B to equilibrate the column, flow rate 0.20 mL min^–1. […] Data acquisition, data handling, and instrument control were performed by MassLynx Software 4.1 v (Data Handling System for Windows, Micromass, UK).
Calibration curves were calculated with equal weighted least-squares linear regression analysis of the MRM peak area against the standard nominal concentration. […] The matrix effect (ME) for each compound, in brain (B) and in plasma (P), was evaluated by comparing the matrix-matching calibration curve (2.5, 10, 25, and 50 ng mL^–1) with the corresponding calibration curve.[65]
The biological samples were appropriately diluted with the mobile phase (A:B, 70:30, v:v), filtered at 0.22 μm, and analyzed in triplicate (25 μL injected).

[7] = tested on: Naegleria; conditions: mouse model of PAM, 20 mg/kg dose; cited from earlier work
[8] = tested on: N. fowleri European KUL strain; conditions: amoebicidal effect; cited from earlier work
[9] = 10 µM, supplement CSV, read-out: % Inhibition at 10 µM against N. fowleri KUL strain
[10] = Table S1, mean of two biological duplicates, read-out: % Inhibition at 10 µM
[11] = 0.5 μM NfCYP51, inhibitor 0.025–0.5 μM, ≤ values estimated from linear dependence of binding, read-out: KD
[12] = concentration for 50% growth inhibition from dose–response curves, triplicate, axenically cultured N. fowleri trophozoites
[13] = average brain distribution coefficient (brain/plasma ratio)

Chain of NfCYP51 (A0A2H4A2U9 entry or part of it): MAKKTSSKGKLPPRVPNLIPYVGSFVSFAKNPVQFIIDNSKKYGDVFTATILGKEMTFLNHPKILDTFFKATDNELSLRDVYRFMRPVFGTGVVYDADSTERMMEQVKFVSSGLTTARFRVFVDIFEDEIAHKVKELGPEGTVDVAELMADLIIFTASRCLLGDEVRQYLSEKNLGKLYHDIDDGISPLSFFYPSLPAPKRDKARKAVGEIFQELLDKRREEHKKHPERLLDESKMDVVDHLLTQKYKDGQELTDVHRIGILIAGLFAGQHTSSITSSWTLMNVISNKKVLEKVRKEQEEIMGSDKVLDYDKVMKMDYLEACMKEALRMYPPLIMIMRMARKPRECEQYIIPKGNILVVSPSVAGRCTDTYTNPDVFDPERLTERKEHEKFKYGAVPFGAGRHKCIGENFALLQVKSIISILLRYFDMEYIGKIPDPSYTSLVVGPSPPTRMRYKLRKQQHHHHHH

| SMILES | inhibition at 10 µM [4, 9] | inhibition at 10 µM [4, 10] | Kd [3, 11] | EC50 [5, 12] | other results |
| --- | --- | --- | --- | --- | --- |
| O=C(O)c1cccc(C(F)(F)F)c1 [3-trifluoro benzoic acid] |  |  |  |  | circulating metabolite of 2a ([1]; after 2a 20 mg/kg intraperitoneally): one of the main circulating metabolites for up to 24 h |
| Clc1ccc(COC(Cn2ccnc2)c2ccc(Cl)cc2Cl)c(Cl)c1 (centres unmarked) [Compound 1, miconazole] |  |  |  |  | elimination half-life [2]: 24 h; Kd [3]: ≤ 5 nM |
| O=C(OC(Cn1ccnc1)c1ccc(F)cc1)c1cccc(C(F)(F)F)c1 (centres unmarked) [Compound 2a] | 51.5 ± 13.4% | 51.5 ± 13.4% | 88 ± 4 nM |  | inhibition at 10 µM ([4]; read-out: % inhibition at 10 μM, 10 μM, N. fowleri KUL strain): ~50%; concentration at 30 min ([1]; brain): 100 ng/g; concentration at 30 min ([1]; plasma): 4 ng/mL |
| O=C(OC(Cn1ccnc1)c1ccccc1)c1cccc(C(F)(F)F)c1 (centres unmarked) [Compound 2c] | 53.5 ± 6.4% | 53.5 ± 6.4% |  |  |  |
| O=C(Nc1ccc(N2CCN(c3ccc(Cl)cc3)CC2)cc1)OC(Cn1ccnc1)c1ccc(F)cc1 (centres unmarked) [Compound 2d] | 66.5 ± 3.5% | 66.5 ± 3.5% |  |  |  |
| COc1ccc(CC(c2ccc(OC)cc2)n2ccnc2)cc1 (centres unmarked) [Compound 2e] | 49.5 ± 6.4% | 49.5 ± 6.4% |  |  |  |
| COc1ccc(C(Cc2ccc(Cl)cc2)n2ccnc2)cc1 (centres unmarked) [Compound 2f] | 54.5 ± 0.7% | 54.5 ± 0.7% |  |  |  |
| Clc1ccc(C(c2ccn(-c3ccc(Cl)cc3)c2)n2ccnc2)cc1 (centres unmarked) [Compound 2g] | 47 ± 7.1% | 47 ± 7.1% |  |  |  |
| Clc1ccc(-n2ccc(C(c3ccccc3)n3ccnc3)c2)cc1 (centres unmarked) [Compound 2h] | 49 ± 9.9% | 49 ± 9.9% |  |  |  |
| COc1ccc(C(Cc2ccc(-n3cccc3)cc2)n2ccnc2)cc1 (centres unmarked) [Compound 2i] | 37.5 ± 30.4% | 37.5 ± 30.4% |  |  |  |
| COc1ccc([C@H](Cn2ccnc2)OC(=O)c2cccc(C(F)(F)F)c2)cc1 [Compound 3a, (R)-2-(1H-Imidazol-1-yl)-1-(4-methoxyphenyl)ethyl 3-(Trifluoromethyl)benzoate] |  |  |  |  | inhibition at 50 µM ([5]; read-out: % inhibition at 50 μM): 69% |
| COc1ccc([C@@H](Cn2ccnc2)OC(=O)c2cccc(C(F)(F)F)c2)cc1 [Compound 3b, (S)-2-(1H-Imidazol-1-yl)-1-(4-methoxyphenyl)ethyl 3-(Trifluoromethyl)benzoate] |  |  |  | 24000 ± 900 nM | EC50 ([5]; supplement CSV): 24800 ± 900 nM |
| O=C(O[C@@H](Cn1ccnc1)c1ccc(F)cc1)c1cc(Cl)cc(Cl)c1 [Compound 4a, (R)-1-(4-Fluorophenyl)-2-(1H-imidazol-1-yl)ethyl 3,5-Dichlorobenzoate] |  |  |  | 21500 ± 40 nM |  |
| O=C(O[C@H](Cn1ccnc1)c1ccc(F)cc1)c1cc(Cl)cc(Cl)c1 [Compound 4b, (S)-1-(4-Fluorophenyl)-2-(1H-imidazol-1-yl)ethyl 3,5-Dichlorobenzoate] |  |  |  | 4800 ± 50 nM |  |
| O=C(O[C@@H](Cn1ccnc1)c1ccc(Cl)cc1Cl)c1cccc(C(F)(F)F)c1 [Compound 5a, (R)-1-(2,4-Dichlorophenyl)-2-(1H-imidazol-1-yl)ethyl 3-(Trifluoromethyl)benzoate] |  |  | 161 ± 8 nM | 10200 ± 30 nM |  |
| O=C(O[C@H](Cn1ccnc1)c1ccc(Cl)cc1Cl)c1cccc(C(F)(F)F)c1 [Compound 5b, (S)-1-(2,4-Dichlorophenyl)-2-(1H-imidazol-1-yl)ethyl 3-(Trifluoromethyl)benzoate] |  |  | 70 ± 2 nM | 4300 ± 50 nM |  |
| O=C(O[C@H](Cn1ccnc1)c1ccc(Cl)cc1Cl)c1ccc(Cl)cc1Cl [Compound 6b, (S)-1-(2,4-Dichlorophenyl)-2-(1H-imidazol-1-yl)ethyl 2,4-Dichlorobenzoate] |  |  | ≤ 5 nM | 2600 ± 30 nM |  |
| O=C(O[C@H](Cn1cncn1)c1ccc(F)cc1)c1cccc(C(F)(F)F)c1 [Compound 7, (S)-1-(4-Fluorophenyl)-2-(1H-1,2,4-triazol-1-yl)ethyl 3-(Trifluoromethyl)benzoate] |  |  | 87 ± 10 nM | 20600 ± 40 nM |  |
| Fc1ccc([C@@H](Cn2ccnc2)OCc2cc(Cl)cc(Cl)c2)cc1 [Compound 8b, (S)-1-(2-((3,5-Dichlorobenzyl)oxy)-2-(4-fluorophenyl)ethyl)-1H-imidazole] |  |  | 7 ± 2 nM | 2400 ± 40 nM | brain/plasma (B/P) ([6]; 1 h): 0.35; Kp at 1 h [6, 13]: 0.43 ± 0.08; Kp at 1 h ([6]; brain/plasma (B/P)): 0.51 |
| FC(F)(F)c1cccc(CO[C@H](Cn2ccnc2)c2ccc(Cl)cc2Cl)c1 [Compound 9b, (S)-1-(2-(2,4-Dichlorophenyl)-2-((3-(trifluoromethyl)benzyl)oxy)ethyl)-1H-imidazole] |  |  | ≤ 5 nM | 1500 ± 20 nM | average brain distribution coefficient (brain/plasma ratio) ([6]; 1 h): ~1; brain/plasma (B/P) ([6]; 1 h): 1.14; Kp at 1 h [6, 13]: 1.02 ± 0.12; Kp at 1 h ([6]; brain/plasma (B/P)): 0.89 |
| Clc1cc(Cl)cc(CO[C@H](Cn2ccnc2)c2ccc(Cl)cc2Cl)c1 [Compound 10b, (S)-1-(2-((3,5-Dichlorobenzyl)oxy)-2-(2,4-dichlorophenyl)ethyl)-1H-imidazole] |  |  | ≤ 5 nM | 3500 ± 10 nM |  |
| OC(Cn1cncn1)(Cn1cncn1)c1ccc(F)cc1F [Fluconazole, fluconazole, reference compound] |  |  | 141 ± 21 nM |  |  |
| CC[C@@H]([C@H](C)O)n1ncn(-c2ccc(N3CCN(c4ccc(OC[C@@H]5CO[C@@](Cn6cncn6)(c6ccc(F)cc6F)C5)cc4)CC3)cc2)c1=O [Posaconazole] |  |  |  |  | mice cured [7]: two of six mice cured; EC50 [8]: ≤ 10 nM |
| CCC(C)n1ncn(-c2ccc(N3CCN(c4ccc(OCC5COC(Cn6cncn6)(c6ccc(Cl)cc6Cl)O5)cc4)CC3)cc2)c1=O (centres unmarked) [itraconazole] |  |  |  |  | EC50 [8]: ≤ 10 nM |
